Reference: PMC8213057, “Targeting ALK2: An Open Science Approach to Developing Therapeutics for the Treatment of Diffuse Intrinsic Pontine Glioma” (Journal of Medicinal Chemistry, 2020)
Several values for one entry are separate records, joined by “and”; a condition that tells them apart may be missing. Equal entries are not always repeated.

Key:
[1] = target: RSK3 (Homo sapiens, UniProt Q15349); test: biochemical; settings: read-out: % enzyme activity, 1 μM; Run 1, Run 2
[2] = target: STK32C/YANK3 (Homo sapiens, UniProt Q86UX6); settings: 1 μM; Run 1, Run 2
Sequence of STK32C/YANK3 (Q86UX6 whole entry): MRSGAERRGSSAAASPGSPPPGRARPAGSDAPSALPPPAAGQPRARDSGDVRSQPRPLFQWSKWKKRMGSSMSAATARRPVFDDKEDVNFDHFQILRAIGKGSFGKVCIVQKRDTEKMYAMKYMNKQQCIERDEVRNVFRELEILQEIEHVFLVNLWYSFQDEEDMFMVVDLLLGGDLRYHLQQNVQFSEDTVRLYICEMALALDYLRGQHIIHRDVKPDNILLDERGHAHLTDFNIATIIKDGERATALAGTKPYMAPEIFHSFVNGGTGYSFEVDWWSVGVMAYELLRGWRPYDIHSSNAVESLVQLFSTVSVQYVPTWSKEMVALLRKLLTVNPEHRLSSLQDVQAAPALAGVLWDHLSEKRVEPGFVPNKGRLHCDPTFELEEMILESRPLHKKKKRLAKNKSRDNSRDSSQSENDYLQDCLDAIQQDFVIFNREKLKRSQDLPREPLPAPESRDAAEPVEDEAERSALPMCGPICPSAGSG

[3] = tested on: ALK1/ACVRL1
[4] = target: PHKg1 (Homo sapiens, UniProt Q16816); settings: 1 μM; Run 1, Run 2
Sequence of PHKg1 (Q16816 whole entry): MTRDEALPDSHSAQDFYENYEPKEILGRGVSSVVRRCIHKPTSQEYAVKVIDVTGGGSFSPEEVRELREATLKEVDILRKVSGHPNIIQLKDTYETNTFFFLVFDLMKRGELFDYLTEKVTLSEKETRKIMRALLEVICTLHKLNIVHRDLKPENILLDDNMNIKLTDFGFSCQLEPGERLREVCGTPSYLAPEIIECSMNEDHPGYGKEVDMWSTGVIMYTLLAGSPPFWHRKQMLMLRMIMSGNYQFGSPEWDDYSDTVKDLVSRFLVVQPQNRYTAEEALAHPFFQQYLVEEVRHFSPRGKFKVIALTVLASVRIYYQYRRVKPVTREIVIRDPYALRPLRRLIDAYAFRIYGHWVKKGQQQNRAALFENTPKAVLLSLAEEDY

[5] = target: CLK4 (Homo sapiens, UniProt Q9HAZ1); settings: 1 μM; Run 1, Run 2
Sequence of CLK4 (Q9HAZ1 whole entry): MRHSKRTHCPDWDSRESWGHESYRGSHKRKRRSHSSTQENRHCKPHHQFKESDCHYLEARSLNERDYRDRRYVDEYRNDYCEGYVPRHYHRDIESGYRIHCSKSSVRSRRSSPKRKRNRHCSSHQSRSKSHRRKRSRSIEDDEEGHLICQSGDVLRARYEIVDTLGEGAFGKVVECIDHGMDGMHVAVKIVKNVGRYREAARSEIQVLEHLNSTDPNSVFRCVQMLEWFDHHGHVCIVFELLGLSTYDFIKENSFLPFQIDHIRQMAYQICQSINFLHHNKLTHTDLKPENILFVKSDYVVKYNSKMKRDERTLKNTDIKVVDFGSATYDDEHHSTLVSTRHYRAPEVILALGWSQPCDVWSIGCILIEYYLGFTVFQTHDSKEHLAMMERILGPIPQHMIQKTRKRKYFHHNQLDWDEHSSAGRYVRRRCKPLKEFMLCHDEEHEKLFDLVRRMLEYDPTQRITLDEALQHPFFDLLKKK

[6] = target: T1, BMX/ETK (Homo sapiens, UniProt P51813); test: biochemical; settings: read-out: % enzyme activity, 1 μM; Run 1, Run 2
T1 sequence (P51813 1-675): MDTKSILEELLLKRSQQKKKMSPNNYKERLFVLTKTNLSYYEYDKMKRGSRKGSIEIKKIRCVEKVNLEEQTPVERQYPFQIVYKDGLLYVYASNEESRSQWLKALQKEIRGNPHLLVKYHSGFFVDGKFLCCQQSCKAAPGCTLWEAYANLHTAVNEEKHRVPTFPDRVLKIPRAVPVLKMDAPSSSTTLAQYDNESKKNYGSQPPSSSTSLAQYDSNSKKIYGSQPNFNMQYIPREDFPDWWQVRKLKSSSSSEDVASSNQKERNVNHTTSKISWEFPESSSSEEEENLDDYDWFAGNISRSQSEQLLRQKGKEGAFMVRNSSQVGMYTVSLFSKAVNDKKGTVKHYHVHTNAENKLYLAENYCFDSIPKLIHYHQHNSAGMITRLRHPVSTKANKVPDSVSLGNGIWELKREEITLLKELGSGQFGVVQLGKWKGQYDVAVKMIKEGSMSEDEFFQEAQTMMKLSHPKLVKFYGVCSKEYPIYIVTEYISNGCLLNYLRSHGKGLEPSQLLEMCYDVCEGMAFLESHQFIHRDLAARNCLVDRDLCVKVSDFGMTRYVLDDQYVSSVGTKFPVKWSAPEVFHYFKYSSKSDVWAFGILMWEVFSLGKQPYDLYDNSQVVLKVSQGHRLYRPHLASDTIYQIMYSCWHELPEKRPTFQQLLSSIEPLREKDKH

[7] = target: T2, KHS/MAP4K5 (Homo sapiens, UniProt Q9Y4K4); test: 375-member kinase panel; type: biochemical; settings: Run 1, Run 2; for % enzyme activity: 1 μM; for remaining activity at 1 µM: read-out: % enzyme activity, 1 μM
T2 construct: purchased Reaction Biology Corporation
T2 sequence (Q9Y4K4 whole entry): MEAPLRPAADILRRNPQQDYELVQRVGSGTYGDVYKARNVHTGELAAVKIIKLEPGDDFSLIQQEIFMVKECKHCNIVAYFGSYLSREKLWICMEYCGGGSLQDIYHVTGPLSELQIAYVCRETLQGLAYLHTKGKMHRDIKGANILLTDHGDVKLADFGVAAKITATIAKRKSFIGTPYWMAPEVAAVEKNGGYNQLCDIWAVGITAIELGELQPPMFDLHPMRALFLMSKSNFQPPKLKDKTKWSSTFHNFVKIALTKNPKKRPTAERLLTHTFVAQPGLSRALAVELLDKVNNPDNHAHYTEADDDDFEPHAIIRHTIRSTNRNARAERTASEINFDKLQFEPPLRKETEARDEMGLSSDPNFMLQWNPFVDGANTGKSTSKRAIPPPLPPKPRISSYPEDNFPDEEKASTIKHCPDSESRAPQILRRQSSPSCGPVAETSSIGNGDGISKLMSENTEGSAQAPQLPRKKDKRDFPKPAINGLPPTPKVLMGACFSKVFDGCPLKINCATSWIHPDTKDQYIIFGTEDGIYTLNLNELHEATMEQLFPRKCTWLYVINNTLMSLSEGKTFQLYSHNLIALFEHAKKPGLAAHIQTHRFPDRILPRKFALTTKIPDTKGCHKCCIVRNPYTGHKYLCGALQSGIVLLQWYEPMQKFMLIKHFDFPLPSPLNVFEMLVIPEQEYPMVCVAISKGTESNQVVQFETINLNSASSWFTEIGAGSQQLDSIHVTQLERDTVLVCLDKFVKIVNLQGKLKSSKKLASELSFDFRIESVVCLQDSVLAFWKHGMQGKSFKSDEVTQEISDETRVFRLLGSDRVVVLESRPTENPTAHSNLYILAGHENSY

[8] = target: T3, PKD2/PRKD2 (Homo sapiens, UniProt Q9BZL6); test: biochemical; settings: read-out: % enzyme activity, 1 μM; Run 1, Run 2
T3 sequence (Q9BZL6 1-878): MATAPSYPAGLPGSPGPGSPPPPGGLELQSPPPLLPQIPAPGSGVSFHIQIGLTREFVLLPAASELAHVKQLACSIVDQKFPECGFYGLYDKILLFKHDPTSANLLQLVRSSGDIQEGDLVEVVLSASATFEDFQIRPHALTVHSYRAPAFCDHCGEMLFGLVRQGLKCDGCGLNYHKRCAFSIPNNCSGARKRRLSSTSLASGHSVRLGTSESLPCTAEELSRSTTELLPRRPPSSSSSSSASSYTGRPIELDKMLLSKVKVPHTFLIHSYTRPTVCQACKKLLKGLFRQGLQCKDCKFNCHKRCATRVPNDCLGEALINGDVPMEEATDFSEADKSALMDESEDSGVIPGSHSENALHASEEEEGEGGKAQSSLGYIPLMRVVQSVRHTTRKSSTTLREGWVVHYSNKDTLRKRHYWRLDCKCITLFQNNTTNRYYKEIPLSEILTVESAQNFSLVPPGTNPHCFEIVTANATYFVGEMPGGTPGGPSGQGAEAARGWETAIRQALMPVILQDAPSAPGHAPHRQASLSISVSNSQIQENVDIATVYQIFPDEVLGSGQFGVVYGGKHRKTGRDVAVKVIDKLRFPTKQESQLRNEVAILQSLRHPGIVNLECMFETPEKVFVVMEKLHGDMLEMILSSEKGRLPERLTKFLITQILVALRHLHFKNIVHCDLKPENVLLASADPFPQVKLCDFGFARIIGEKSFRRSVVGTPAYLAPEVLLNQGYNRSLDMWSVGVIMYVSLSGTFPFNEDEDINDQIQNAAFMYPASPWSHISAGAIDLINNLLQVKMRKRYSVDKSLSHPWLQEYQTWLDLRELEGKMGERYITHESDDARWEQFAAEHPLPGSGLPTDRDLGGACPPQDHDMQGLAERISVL

[9] = target: T4, RIPK4 (Homo sapiens, UniProt P57078); settings: 1 μM; Run 1, Run 2
T4 sequence (P57078 1-832): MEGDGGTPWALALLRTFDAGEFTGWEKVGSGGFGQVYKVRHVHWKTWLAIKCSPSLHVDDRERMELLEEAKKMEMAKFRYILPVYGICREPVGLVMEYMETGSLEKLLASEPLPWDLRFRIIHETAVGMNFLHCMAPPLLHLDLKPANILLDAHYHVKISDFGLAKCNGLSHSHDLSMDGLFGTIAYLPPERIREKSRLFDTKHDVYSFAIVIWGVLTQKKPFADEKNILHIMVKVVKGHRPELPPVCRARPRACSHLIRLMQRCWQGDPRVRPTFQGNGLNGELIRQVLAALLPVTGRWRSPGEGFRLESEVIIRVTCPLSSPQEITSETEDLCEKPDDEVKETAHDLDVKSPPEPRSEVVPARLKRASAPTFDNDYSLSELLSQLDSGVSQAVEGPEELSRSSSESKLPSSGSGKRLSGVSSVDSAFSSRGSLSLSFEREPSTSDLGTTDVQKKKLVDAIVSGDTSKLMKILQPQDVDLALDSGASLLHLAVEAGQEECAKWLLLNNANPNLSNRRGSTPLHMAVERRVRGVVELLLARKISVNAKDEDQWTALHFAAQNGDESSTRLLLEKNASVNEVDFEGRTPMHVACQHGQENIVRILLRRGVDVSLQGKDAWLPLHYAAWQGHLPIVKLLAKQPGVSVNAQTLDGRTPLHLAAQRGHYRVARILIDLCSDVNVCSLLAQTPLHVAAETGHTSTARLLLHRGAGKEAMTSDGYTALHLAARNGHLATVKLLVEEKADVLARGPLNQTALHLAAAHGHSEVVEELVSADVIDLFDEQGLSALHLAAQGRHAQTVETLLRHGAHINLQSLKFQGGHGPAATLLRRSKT

[10] = target: JNK3 (Homo sapiens, UniProt P53779); test: biochemical; settings: read-out: % enzyme activity, 1 μM; Run 1, Run 2
Sequence of JNK3 (P53779 whole entry): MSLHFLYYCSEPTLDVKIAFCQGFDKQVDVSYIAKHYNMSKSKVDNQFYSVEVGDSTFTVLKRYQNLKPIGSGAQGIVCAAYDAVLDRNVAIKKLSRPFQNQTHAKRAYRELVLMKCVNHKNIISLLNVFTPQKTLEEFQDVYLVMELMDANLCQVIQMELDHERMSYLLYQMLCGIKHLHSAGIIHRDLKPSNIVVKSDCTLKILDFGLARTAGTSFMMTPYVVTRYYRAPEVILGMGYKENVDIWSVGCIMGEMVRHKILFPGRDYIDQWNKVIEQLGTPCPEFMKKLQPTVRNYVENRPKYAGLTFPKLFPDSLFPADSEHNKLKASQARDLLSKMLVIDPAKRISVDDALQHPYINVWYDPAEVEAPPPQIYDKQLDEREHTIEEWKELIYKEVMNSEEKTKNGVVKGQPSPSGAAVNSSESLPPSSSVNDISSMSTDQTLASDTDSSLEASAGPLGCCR

Sequence of RSK3 (Q15349 whole entry): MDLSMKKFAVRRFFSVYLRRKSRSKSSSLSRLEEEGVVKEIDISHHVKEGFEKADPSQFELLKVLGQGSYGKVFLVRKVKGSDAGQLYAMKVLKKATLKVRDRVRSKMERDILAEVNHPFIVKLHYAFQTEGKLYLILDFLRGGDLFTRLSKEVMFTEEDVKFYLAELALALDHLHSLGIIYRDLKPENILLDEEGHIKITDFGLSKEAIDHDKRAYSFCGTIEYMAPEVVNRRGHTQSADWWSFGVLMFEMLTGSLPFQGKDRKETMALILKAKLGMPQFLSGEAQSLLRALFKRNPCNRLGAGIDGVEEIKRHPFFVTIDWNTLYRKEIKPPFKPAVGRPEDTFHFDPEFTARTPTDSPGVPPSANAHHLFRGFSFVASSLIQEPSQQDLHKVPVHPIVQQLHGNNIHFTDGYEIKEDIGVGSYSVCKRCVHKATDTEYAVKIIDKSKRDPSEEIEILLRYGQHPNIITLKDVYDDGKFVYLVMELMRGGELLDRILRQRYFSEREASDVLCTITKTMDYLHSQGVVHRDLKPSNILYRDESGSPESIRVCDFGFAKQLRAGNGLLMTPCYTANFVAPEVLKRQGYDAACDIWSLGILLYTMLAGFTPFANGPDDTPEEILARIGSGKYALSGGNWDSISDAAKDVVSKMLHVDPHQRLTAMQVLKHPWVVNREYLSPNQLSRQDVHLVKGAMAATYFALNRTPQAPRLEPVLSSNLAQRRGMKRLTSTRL

Compound | remaining activity at 1 µM [1] [%] | % enzyme activity [2] [%] | % enzyme activity at 1 μM [3] | % enzyme activity [4] [%] | % enzyme activity [5] [%] | remaining activity at 1 µM [6] [%] | % enzyme activity [7] [%] | remaining activity at 1 µM [7] [%] | remaining activity at 1 µM [8] [%] | % enzyme activity [9] [%] | remaining activity at 1 µM [10] [%]
COc1cc(-c2cncc(-c3ccc(N4CCN(C)CC4)cc3)c2C)cc(F)c1C(N)=O [Compound 26a, 2-Fluoro-6-methoxy-4-(4-methyl-5-(4-(4-methylpiperazin-1-yl)phenyl)pyridin-3-yl)benzamide] | 92.2 | 85.01 | 2.65% | 82.79 | 85.58 | 103 | 39.28 | 39.7 | 96.1 | 70.28 | 96.4
COc1cc(-c2cncc(-c3ccc(N4C[C@@H](C)N(C)[C@@H](C)C4)cc3)c2C)cc(F)c1C(N)=O [Compound 26c, 2-Fluoro-6-methoxy-4-(4-methyl-5-(4-((3R,5S)-3,4,5-trimethylpiperazin-1-yl)phenyl)pyridin-3-yl)benzamide] | 101 | 91.96 | 4.67% and 4.38% | 95.24 | 91.14 | 102 | 40.60 | 41.7 | 99.2 | 82.04 | 104
